Converted amounts (≈) assume the structure as drawn. Non-standard residues stand in square brackets, D forms with d. Residues, ends and D or L forms follow the SMILES beside them. Nspe = C[C@H](NCC(=O)O)c1ccccc1; Nlys = NCCCCNCC(=O)O
Tests used:
Type in all cases: cell-based
[1] = tested on: Pseudomonas aeruginosa PAO1; details: PAO1, MHB
From the text: (§3) The S. pneumoniae strains used were SP04, SP06 and SP07 [46] and Streptococcus gallolyticus SV06 (all isolated from eyes of contact lens wearers during adverse events); P. aeruginosa PAO1 (which was originally isolated from a wound, and is an invasive strain containing the gene exoS) as well as isolates from microbial keratitis, PA 235 (invasive strain containing exoS), PA216 (a cytotoxic strain containing exoU), PA219 (cytotoxic strain containing exoU), PA 233 (cytotoxic strain containing exoU), with various susceptibilities to antibiotics were also used [14]. C. albicans ATCC 10231, a yeast, isolated from case of a human bronchomycosis, was also evaluated.
(§4) The peptoids’ minimum inhibitory and bactericidal concentrations (MIC and MBC) were determined using micro broth dilution methods as previously described with slight modifications, [26, 39, 49, 50], and without using acetic acid and bovine serum albumin [39]. Briefly, bacteria or yeast were suspended in Muller Hinton broth (MHB, Oxoid, Thermo Fisher Scientific, Thebarton, SA, Australia) at 0.1 OD660nm, which was equivalent to 1x10^8 colony forming units (CFU) mL^−1. This suspension was further diluted to achieve 5x10^6 CFU mL^−1. The peptoids were diluted in MHB from 250 to 0.24 μg mL^−1 in 96-well polystyrene microplates (COSTAR, Corning Incorporated, New York, NY, USA) [39]. […] This was followed by addition of 100 μL of each microbial suspensions. Wells with only bacteria or the yeast were treated as a negative control, and wells with only MHB medium were treated as a blank. The plates were incubated at 37 °C with shaking at 120 rpm for 24 h. After incubation, the media in each well was serially diluted in phosphate buffered solution and then inoculated onto tryptone soya agar (Oxoid) plates for bacteria, or Sabouraud’s dextrose agar for the yeast, and incubated at 37 °C for 18 hrs. Post incubation, the number of CFUs on the agar plates was counted.

horse erythrocytes = test: In vitro assay for hemolysis, horse blood
Protocol: (§1) Hemolysis caused by the peptoids was measured using 18 to 20 mL of a horse or human blood collected in EDTA-coated tubes which has been centrifuged at 500×g for 5 min. The supernatant was discarded and the pellet containing the cells were resuspended in PBS to a final volume of 20 mL. This step was repeated five times. After the final wash, the pellet was resuspended in PBS at the ratio of 1:10 (1 mL red blood cell: 9 mL PBS) to yield a final red blood cell (RBC) concentration of approximately 5 × 10^8 cells mL^−1. The concentration of RBCs was confirmed using a hemocytometer. The peptoids (stock concentration 2 mM) were diluted sequentially (two-fold dilutions) in PBS to final concentrations of […]. All the dilutions were subsequently mixed with the RBC suspension at the ratio of 1:1. MilliQ water was used as a positive control and PBS was used as a negative control in this assay. All samples were incubated at 37 °C for 3 h. Following incubation, the tubes were centrifuged at 500 x g for five mins, the supernatants were collected, transferred to wells in a 96 well plate and their optical density was measured at 540 nm. The percentage of hemolysis was calculated by dividing the absorbance of the test sample by the absorbance of the positive control, and multiplying by 100. Data are presented as the hemolysis caused by each dilution of peptoid, and as the concentration of peptoid that caused 10 % or 50 % lysis of red blood cells.
(§2) The geometric mean is the nth root of the multiplied numbers, where n is the total number of data values. A similar formula was used to calculate the selectivity ratio, but by using the concentration of peptoid that caused 10 % hemolysis.

[2] = tested on: Pseudomonas aeruginosa PA233; details: PA233, MHB, 24 h 37 °C
From the text: All S. aureus strains used were isolated from cases of microbial keratitis (Table 1) with various susceptibilities to antibiotics. The S. pneumoniae strains used were SP04, SP06 and SP07 [46] and Streptococcus gallolyticus SV06 (all isolated from eyes of contact lens wearers during adverse events); P. aeruginosa PAO1 (which was originally isolated from a wound, and is an invasive strain containing the gene exoS) as well as isolates from microbial keratitis, PA 235 (invasive strain containing exoS), PA216 (a cytotoxic strain containing exoU), PA219 (cytotoxic strain containing exoU), PA 233 (cytotoxic strain containing exoU), with various susceptibilities to antibiotics were also used. C. albicans ATCC 10231, a yeast, isolated from case of a human bronchomycosis, was also evaluated.
The peptoids’ minimum inhibitory and bactericidal concentrations (MIC and MBC) were determined using micro broth dilution methods as previously described with slight modifications, [26, 39, 49, 50], and without using acetic acid and bovine serum albumin [39]. Briefly, bacteria or yeast were suspended in Muller Hinton broth (MHB, Oxoid, Thermo Fisher Scientific, Thebarton, SA, Australia) at 0.1 OD660nm, which was equivalent to 1x10^8 colony forming units (CFU) mL^−1. This suspension was further diluted to achieve 5x10^6 CFU mL^−1. The peptoids were diluted in MHB from 250 to 0.24 μg mL^−1 in 96-well polystyrene microplates (COSTAR, Corning Incorporated, New York, NY, USA). This range was selected to cover the range of MIC values previously reported for ESKAPE pathogens. This was followed by addition of 100 μL of each microbial suspensions. Wells with only bacteria or the yeast were treated as a negative control, and wells with only MHB medium were treated as a blank. The plates were incubated at 37 °C with shaking at 120 rpm for 24 h. After incubation, the media in each well was serially diluted in phosphate buffered solution and then inoculated onto tryptone soya agar (Oxoid) plates for bacteria, or Sabouraud’s dextrose agar for the yeast, and incubated at 37 °C for 18 hrs. Post incubation, the number of CFUs on the agar plates was counted.

[3] = tested on: Staphylococcus aureus SA114; details: SA114, MHB, 24 h 37 °C
From the text: as §3, §4

[4] = tested on: Candida albicans ATCC 10231; test: MIC/MBC (fungicidal) micro broth dilution; details: ATCC 10231 (yeast); MHB, 24 h 37 °C; ≥99.99 % reduction in CFUs
From the text: as §3, §4

[5] = tested on: Pseudomonas aeruginosa PA219; details: PA219, MHB, 24 h 37 °C
From the text: as §3, §4

[6] = tested on: Staphylococcus aureus SA117; details: SA117, MHB, 24 h 37 °C
From the text: as §3, §4

human erythrocytes = test: In vitro assay for hemolysis, human blood
Protocol: as §1, §2

[7] = tested on: Streptococcus gallolyticus SG04; details: SG04, MHB, 24 h 37 °C
From the text: as §3, §4

[8] = tested on: Streptococcus pneumoniae SP07; details: SP07, MHB, 24 h 37 °C
From the text: as §3, §4

[9] = tested on: Pseudomonas aeruginosa PA216; details: PA216, MHB, 24 h 37 °C
From the text: as §3, §4

[10] = tested on: Staphylococcus aureus SA65; details: SA65, MHB, 24 h 37 °C
From the text: as §3, §4

[11] = tested on: viridans group streptococcus SV06; details: SV06, MHB, 24 h 37 °C
From the text: as §3, §4

[12] = tested on: Pseudomonas aeruginosa PA235; details: PA235; MHB, 24 h 37 °C; ≥99.99 % reduction in CFUs
From the text: as §3, §4

[13] = tested on: Streptococcus pneumoniae SP04; details: SP04, MHB, 24 h 37 °C
From the text: as §3, §4

[14] = tested on: Staphylococcus aureus SA113; details: SA113, MHB, 24 h 37 °C
From the text: as §3, §4

[15] = tested on: Streptococcus pneumoniae SP06; details: SP06, MHB, 24 h 37 °C
From the text: as §3, §4

[16] = tested on: Staphylococcus aureus SA34; details: SA34, MHB, 24 h 37 °C
From the text: as §3, §4

C[C@@H](c1ccccc1)N(CC(N)=O)C(=O)CN(C(=O)CN(CCCCN)C(=O)CN(C(=O)CN(C(=O)CN(CCCCN)C(=O)CN(C(=O)CN(C(=O)CN(CCCCN)C(=O)CN(C(=O)CN(C(=O)CNCCCCN)[C@@H](C)c1ccccc1)[C@@H](C)c1ccccc1)[C@@H](C)c1ccccc1)[C@@H](C)c1ccccc1)[C@@H](C)c1ccccc1)[C@@H](C)c1ccccc1)[C@@H](C)c1ccccc1 [TM1] (H-[Nlys][Nspe][Nspe][Nlys][Nspe][Nspe][Nlys][Nspe][Nspe][Nlys][Nspe][Nspe]-NH2)
MIC ([1]; 5x10^6 CFU mL^−1, 24 h 37 °C, ≥90 % reduction in CFUs): 7.8 µg/mL (≈ 4.29 µM)
MBC ([1]; 24 h 37 °C, ≥99.99 % reduction in CFUs): 15 µg/mL (≈ 8.24 µM)
Horse HC10 (horse erythrocytes; concentration causing 10 % lysis of horse red blood cells, PBS, 3 h 37 °C, OD 540 nm): 4 µM
Horse HC50 (horse erythrocytes; concentration causing 50 % lysis of horse red blood cells, PBS, 3 h 37 °C, OD 540 nm): 45 µM
SR horse blood (ratio HC10 to geometric mean MIC) (horse erythrocytes; selectivity ratio): 1
TI horse blood (ratio HC50 to geometric mean MIC) (horse erythrocytes; therapeutic index): 11
MIC ([2]; ≥90 % reduction in CFUs): 15(8.6)/15(8.6) μg mL^−1
MBC ([2]; ≥99.99 % reduction in CFUs): 15(8.6)/15(8.6) μg mL^−1
MIC ([3]; ≥90 % reduction in CFUs): 7.8(4.3)/7.8(4.3) μg mL^−1
MBC ([3]; ≥99.99 % reduction in CFUs): 7.8(4.3)/7.8(4.3) μg mL^−1
MBC (minimum fungicidal concentration) [4]: 3.9(2.2)/3.9(2.2) μg mL^−1
MIC ([5]; ≥90 % reduction in CFUs): 15 µg/mL (≈ 8.24 µM)
MBC ([5]; ≥99.99 % reduction in CFUs): 31 µg/mL (≈ 17 µM)
MIC ([6]; ≥90 % reduction in CFUs): 7.8 µg/mL (≈ 4.29 µM)
MBC ([6]; ≥99.99 % reduction in CFUs): 15 µg/mL (≈ 8.24 µM)
Human HC10 (human erythrocytes; concentration causing 10 % lysis of human red blood cells, PBS, 3 h 37 °C, OD 540 nm): 8 µM
Human HC50 (human erythrocytes; concentration causing 50 % lysis of human red blood cells, PBS, 3 h 37 °C, OD 540 nm): 49 µM
SR human blood (ratio HC10 to geometric mean MIC) (human erythrocytes; selectivity ratio): 2
TI human blood (ratio HC50 to geometric mean MIC) (human erythrocytes; therapeutic index): 12
MIC ([7]; ≥90 % reduction in CFUs): 3.9 µg/mL (≈ 2.14 µM)
MBC ([7]; ≥99.99 % reduction in CFUs): 7.8 µg/mL (≈ 4.29 µM)
MIC ([8]; ≥90 % reduction in CFUs): 15(8.6)/15(8.6) μg mL^−1
MBC ([8]; ≥99.99 % reduction in CFUs): 15(8.6)/15(8.6) μg mL^−1
MIC ([9]; ≥90 % reduction in CFUs): 15 µg/mL (≈ 8.24 µM)
MBC ([9]; ≥99.99 % reduction in CFUs): 31 µg/mL (≈ 17 µM)
MIC ([10]; ≥90 % reduction in CFUs): 3.9(2.2)/3.9(2.2) μg mL^−1
MBC ([10]; ≥99.99 % reduction in CFUs): 3.9(2.2)/3.9(2.2) μg mL^−1
MIC ([11]; ≥90 % reduction in CFUs): 3.9 µg/mL (≈ 2.14 µM)
MBC ([11]; ≥99.99 % reduction in CFUs): 7.8 µg/mL (≈ 4.29 µM)
MBC [12]: 31(17)/31(17) μg mL^−1
MIC ([13]; ≥90 % reduction in CFUs): 1.9(1.1)/1.9(1.1) μg mL^−1
MBC ([13]; ≥99.99 % reduction in CFUs): 1.9(1.1)/1.9(1.1) μg mL^−1
MIC ([14]; ≥90 % reduction in CFUs): 3.9 µg/mL (≈ 2.14 µM)
MBC ([14]; ≥99.99 % reduction in CFUs): 7.8 µg/mL (≈ 4.29 µM)
MIC ([15]; ≥90 % reduction in CFUs): 3.9 µg/mL (≈ 2.14 µM)
MBC ([15]; ≥99.99 % reduction in CFUs): 7.8 µg/mL (≈ 4.29 µM)
MIC ([16]; ≥90 % reduction in CFUs): 7.8 µg/mL (≈ 4.29 µM)
MBC ([16]; ≥99.99 % reduction in CFUs): 15 µg/mL (≈ 8.24 µM)

Source: article PMC11024869, “The activity of antimicrobial peptoids against multidrug-resistant ocular pathogens” (Contact lens & anterior eye : the journal of the British …, 2024)
